Converted amounts (≈) assume the structure as drawn. A value given as a limit tells only on which side of the number the result lay.

Consider 6 compounds from patent US11155542B2, “Antimicrobial compounds, their use for the treatment of mammalian infections and a new metabolic mechanism” (priority 2016, dated 2021).

Data set [1] is classed as in vitro ADME. Conditions: 5 µg/mL. How it is done: Human: A BTZ043 solution in DMSO (5 mg/mL) was prepared and 1 μL of this solution was added to 1 mL aliquots fresh whole blood. The mixtures were shaken at 37° C. for 2 h or 16 h and centrifuged at 4° C. and 3000 rpm to yield plasma. Plasma samples (60 μL) were mixed with acetonitrile (240 μL) on ice, vortexed, treated in an ultrasonic bath (3-5 s) and centrifuged at 4° C. and 9750 rpm. The supernatants were concentrated with a nitrogen stream to a residual volume of approximately 40 μL and analyzed by HPLC and LC-HRMS.

The next data set has as its system Mtb H37Rv. Kind of data set: Resazurin microtiter assay (REMA), MIC Mtb H37Rv. The data set is classed as cell-based. The settings on record: Mycobacterium tuberculosis.
The subject of the next data set is M. vaccae 10670. Kind of data set: MIC M. vaccae 10670. The data set is classed as cell-based. The settings on record: Mycolicibacterium vaccae.
A short description of data set [2]: Cytotoxicity determination (HeLa). In kind it is cell-based. The settings on record: human, HeLa cells (DSM ACC 57). How it is done: The test items were dissolved in DMSO (typically 10 mg/mL, less soluble compounds lower). The solutions were diluted in RPMI 1640 medium. HeLa cells (DSM ACC 57) were grown in RPMI 1640 and harvested at the logarithmic growth phase after soft trypsinization using 0.25% trypsin in phosphate buffered saline (PBS) containing 0.02% ethylenediaminetetraacetic acid (EDTA). For each experiment, approximately 10,000 cells were seeded with 0.1 mL culture medium per well of the 96-well microplates. HeLa cells were pre-incubated for 48 h prior to the addition of the test compounds (final DMSO concentration ≤0.5%), which were carefully diluted on the subconfluent monolayers. Incubation was then conducted in a humidified atmosphere at 37° C. and 5% CO2. The adherent HeLa cells were fixed by glutaraldehyde and stained with a 0.05% solution of methylene blue for 10 min. After gently washing, the stain was eluted with 0.2 mL of 0.33 N HCl in the wells. The optical densities were measured at 660 nm in a SUNRISE microplate reader (TECAN).

A short description of data set [3]: Blank plasma from untreated animals spiked with BTZ043. The data set is classed as in vitro ADME. The text has this: It was therefore reasoned, that a possible explanation of this phenomenon would involve a yet unknown metabolite that was either thermally or oxidatively unstable when exposed to air.
The test system of another data set is M. marinum. Kind of data set: MIC M. marinum. In kind it is cell-based. The settings on record: Mycobacterium marinum.
Data set [4] in a line: Minipig plasma samples after oral BTZ043. Conditions: plasma samples after incubation at room temperature, in some samples. The data set is classed as in vivo, minipigs. Here is the method:
In order to reveal potentially overlooked metabolites, additional metabolic studies of BTZ043 were performed that incorporated careful analysis of highly resolved HPLC chromatograms of plasma samples after different incubation times at room temperature. To ensure maximum stability of the chromatographic conditions, all solvents were carefully degassed through vacuum treatment and/or sparging with nitrogen. […] The concomitant drastic increase of the BTZ043 peak area (in some samples >100%) emphasized the significance of this transient metabolite. […] It was suspected that this metabolite could be formed through an enzymatic reduction of BTZ043 and that it is unstable towards oxygen from air.
Minipig plasma samples: Minipigs received oral doses of 360 mg/kg BTZ043. Blood was collected 2 h subsequent to administration of the compound formulation, immediately cooled on ice and centrifuged at 4° C. and 3000 rpm to yield plasma aliquots which were snap frozen and stored at −80° C. Plasma aliquots (50 μL) were mixed with acetonitrile (200 μL) on ice and under inert conditions (Don Whitley Scientific, anaerobic workstation), vortexed, treated in an ultrasonic bath (3-5 s) and centrifuged at 4° C. and 9750 rpm. The supernatants were concentrated with a nitrogen stream to a residual volume of approximately 40 μL and analyzed by HPLC and LC-HRMS.

Data set [5] in a line: Chemical stability and solubility of Meisenheimer complexes and methylated derivatives. The settings on record: room temperature.
A further data set can be described thus: Fresh blood assay, mice. In kind it is in vitro ADME, C57BL/6J mice. Conditions: in vitro incubation of fresh whole blood, HPLC-HRMS. How it is done: Mice: Fresh whole blood was collected from C57BL/6J mice after cervical dislocation under isoflurane anesthesia. Test item solutions were prepared in DMSO (5 mg/mL) and 0.4 μL of this solution was added to 400 μL fresh whole blood. The mixtures were incubated at 37° C. for 4 h and centrifuged at 4° C. and 3000 rpm to yield plasma. Plasma samples (50 μL) were mixed with acetonitrile (200 μL) on ice, vortexed, treated in an ultrasonic bath (3-5 s) and centrifuged at 4° C. and 9750 rpm. The supernatants were concentrated with a nitrogen stream to a residual volume of approximately 40 μL and analyzed by HPLC and LC-HRMS.

As for `C[C@H]1COC2(CCN(c3nc(=O)c4cc(C(F)(F)F)cc([N+](=O)[O-])c4s3)CC2)O1` [BTZ043, (S)-2-(2-methyl-1,4-dioxa-8-azaspiro[4.5]decan-8-yl)-8-nitro-6-(trifluoro-methyl)-4H-1,3-benzothiazin-4-one, reference compound], the “Transformation of BTZ043 to 5b in fresh whole human blood” value in data set [1] is given as “transformation of BTZ043 to 5b after several hours”. In addition, the MIC in the data set on Mtb H37Rv is 1 ng/mL (≈ 0.00232 µM); against M. vaccae 10670, below 1.2 ng/mL; against M. marinum it was 4 ng/mL (≈ 0.00927 µM). Besides, in data set [2], the cytotoxic concentration (CC50) was above 50000 ng/mL. Besides, the “Peak areas of BTZ043 in spiked blank plasma over time” value in data set [3] is reported as “remained completely unchanged over time”. Further, the “Increase of the BTZ043 peak area in plasma samples over time” value in data set [4] is on record as above 100%.

Regarding `COC1=C2C=C(C(F)(F)F)CC([N+](=O)[O-])=C2SC(N2CCC3(CC2)OC[C@H](C)O3)=N1` [Compound 6a], the “Solubility and stability of the methylated derivatives” value in [5] is “sufficiently soluble and stable at room temperature”.

As to `COC1=C2CC(C(F)(F)F)=CC([N+](=O)[O-])=C2SC(N2CCC3(CC2)OC[C@H](C)O3)=N1` [Compound 6b], the “Solubility and stability of the methylated derivatives” value in data set [5] is “sufficiently soluble and stable at room temperature”.

Regarding `Cc1c(C(F)(F)F)cc2c(=O)nc(N3CCC4(CC3)OC[C@H](C)O4)sc2c1[N+](=O)[O-]` [Example 9a, (S)-7-Methyl-2-(2-methyl-1,4-dioxa-8-azaspiro[4.5]decan-8-yl)-8-nitro-6-(trifluoromethyl)-4H-1,3-benzothiazin-4-one], the MIC in the data set with Mtb H37Rv is 500 ng/mL (≈ 1.12 µM); against M. vaccae 10670, 39 ng/mL (≈ 0.0876 µM); in the data set on M. marinum it was 250 ng/mL (≈ 0.561 µM). In data set [2], this compound gave a CC50 of 38900 ng/mL (≈ 87.3 µM). In the data set “Fresh blood assay, mice”, the “Formation of the Meisenheimer complex (reduced form) in the blood assay” value is “formed only fairly detectable amounts of the Meisenheimer complex”.

On to `Cc1c(C(F)(F)F)cc([N+](=O)[O-])c2sc(N3CCC4(CC3)OC[C@H](C)O4)nc(=O)c12` [Example 9b, (S)-5-Methyl-2-(2-methyl-1,4-dioxa-8-azaspiro[4.5]decan-8-yl)-8-nitro-6-(trifluoromethyl)-4H-1,3-benzothiazin-4-one], for which the MIC was 8 ng/mL (≈ 0.018 µM) in the data set on Mtb H37Rv, below 1.2 ng/mL against M. vaccae 10670 and 8 ng/mL (≈ 0.018 µM) with M. marinum. Also, in data set [2], the CC50 is above 50000 ng/mL. Also, in “Fresh blood assay, mice”, the “Formation of the Meisenheimer complex (reduced form) in the blood assay” value is on record as “could only be detected in trace amounts”.

As for `Cc1c(C(F)(F)F)cc([N+](=O)[O-])c2sc(N3CCN(CC4CCCCC4)CC3)nc(=O)c12` [Example 16, 2-(4-(Cyclohexylmethyl)piperazin-1-yl)-5-methyl-8-nitro-6-(trifluoromethyl)-4H-1,3-benzothiazin-4-one], the MIC against Mtb H37Rv was 0.5 ng/mL (≈ 0.00106 µM); with M. vaccae 10670, below 1.2 ng/mL; in the data set on M. marinum, 1 ng/mL (≈ 0.00213 µM). This compound also gave a 50% cytotoxic concentration (CC50) in data set [2] above 25000 ng/mL.
